Experimental findings from patent US11007269B2, “P53 degradation inducing molecule and pharmaceutical composition” (Tokyo University of Science Foundation, priority 2016, dated 2021) are described below.

The test addresses T1, endogenous wild-type p53 protein (Mus musculus, UniProt P02340).
T1 construct: from tissue; host or cells: liver of C57BL/6J wild-type mice
The test is described as follows: Western blot of wild-type p53 protein in liver of mice given the compound. The test is classed as in vivo. To be noted: C57BL/6J mice, 48 hours after administration. The protocol: In Example 4, degradation (knockdown) of the endogenous wild-type p53 protein and MDM2 protein in mouse individuals in which TIBC-CANDDY_MLN had been administered was evaluated by Western blot analysis.
TIBC-CANDDY_MLN was dissolved in DMSO immediately before administration, and then dissolved in corn oil (Code No. 25606-55, Nacalai Tesque) so that the concentration of DMSO was 10 vol %, and then a dose of 50 mg/kg body weight or 100 mg/kg body weight was administered intraperitoneally to C57BL/6J wild-type mice (7 to 8 weeks old, male) (CLEA Japan, Inc.) (n=3). As a control, an injection carrier (corn oil containing 10 vol % DMSO) was used. The mice were kept under an environment of ad libitum access to food and water. […]
The frozen tissue (0.04 g) was triturated, and then 980 μL of 1×TKM tissue lysis buffer (50 mM triethanolamine (pH 7.8), 50 mM KCl, 5 mM MgCl2, 0.25 M sucrose, 1 mM PMSF, protein inhibitors cocktail-EDTA free (Code No. 03969-21, Nacalai Tesque), 1 mM DTT, Recombinant RNase inhibitor 5 μl/mL (40 U/μl, Cat No. 2313A, Lot No. K8402DA, TAKARA Bio)) was added, and dissolved by rotation for 15 minutes (1 rpm, 25° C.). […] The concentration of proteins in the tissue extract was quantified with a spectrophotometer with the tissue extract that had been diluted 20 times using DEPC-treated water. […]
In general terms: In western blotting, separated proteins are transferred to a membrane and probed.

T1 sequence (P02340 whole entry): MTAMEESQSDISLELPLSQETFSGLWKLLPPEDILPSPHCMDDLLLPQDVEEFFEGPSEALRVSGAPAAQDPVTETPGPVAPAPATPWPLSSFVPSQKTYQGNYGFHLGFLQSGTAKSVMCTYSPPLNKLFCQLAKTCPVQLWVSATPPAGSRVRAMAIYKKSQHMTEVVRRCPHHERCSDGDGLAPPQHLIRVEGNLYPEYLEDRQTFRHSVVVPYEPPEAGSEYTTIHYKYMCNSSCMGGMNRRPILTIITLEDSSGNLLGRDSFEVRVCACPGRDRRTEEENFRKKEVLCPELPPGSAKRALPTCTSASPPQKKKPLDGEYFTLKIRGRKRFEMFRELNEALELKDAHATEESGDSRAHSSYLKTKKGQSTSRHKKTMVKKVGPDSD

Take `CC(C)C[C@H](NC(=O)CNC(=O)c1cc(Cl)ccc1Cl)C(=O)NCCCCCCC(=O)Nc1ccc(C(=O)/C=C/c2ccc(I)cc2)cc1` [TIBC-CANDDY_MLN]: the “amount of endogenous wild-type p53 protein in the liver” value (50 mg/kg body weight intraperitoneally) is on record as “reduced” and the “amount of endogenous wild-type p53 protein in the liver” value (100 mg/kg body weight intraperitoneally) was “reduced”.
